Test results as given in paper PMC10218498, “Exploring BenzylethoxyAryl Urea Scaffolds for Multitarget Immunomodulation Therapies” (International Journal of Molecular Sciences, 2023).
Read-outs that look alike come from different tables or passages of the source.

Columns and labels:
CD11b = CD11b relative quantification by flow cytometry in co-cultured THP-1; assay type: cell-based, human; details: 20 μM; for reduction of CD11b: excess of cancer cells (2:1); for % CD11b: related to non-treated cells
Procedure: Reducing the expression of CD11b has become a promising target for immune modulation in anti-cancer therapies. For that reason, we decided to study the effect of our compounds on CD11b in THP-1 cells co-cultured with HT-29. We also determine the relative amount of CD80, a common surface marker for monocytes. This study was performed on the collected cell culture from each well and gating living THP-1 cell population.
To study the effect of the compounds on every biological target in co-cultured THP-1 immune cells with cancer cell line HT-29, the compounds were incubated for 24 h/48 h as described before.
To detect membrane CD11b and CD80, after the cell incubation, suspended THP-1 was collected from the cell culture of each sample well, fixed with 4% in PBS paraformaldehyde, and stained with FITC Mouse monoclonal Anti-Human CD80 (Sigma-Aldrich, S. Louis, MO, USA, SAB4700142) and Alexa Fluor® 647 Rabbit monoclonal Anti-CD11b (Merck, S. Louis, MO, USA, #MABF366).

ZAP70 = assay: Immunoblotting of OT-1 CTL signaling proteins: ZAP70; assay type: cell-based, mice; details: OT-1, 20 μM, 24 h
Description: (§1) We next studied the effect of our compounds on the signaling cascade downstream of the TCR. […] However, both the expression and phosphorylation of LCK were increased in response to all compounds. The effects on ZAP70 and LAT were more complex, with opposing effects on total protein expression versus phosphorylation. Thus, all compounds modulated signaling downstream of the TCR in a manner that is likely to impact T-cell activation and activity.
(§2) CD8+ cells were obtained from the inguinal, axillary, brachial, and mesenteric lymph nodes previously collected from OT-1 mice. Lymph node cells were isolated by mashing through a […] cell strainer. Cells were resuspended in IMDM cell media at a concentration of 0.3 million cells/mL. N4 ovalbumin peptide was added at a concentration of 10 nM, and cells were incubated for 48 h at 5% CO2, 37 °C. On day 2 from recollection, cells were pelleted at 1300 rpm for 5 min and washed with PBS to remove N4 peptide. The cell pellet was resuspended in fresh IMDM media in a new flask in a 0.3 million cells/mL and supplemented with IL-2 at 20 ng/mL. After incubation for a further 48 h (day 4), cells were re-seeded in fresh IMDM media at a concentration of 0.3 million cells/mL supplemented with IL-2 at 20 ng/mL. Cells were cultured for a further 48 h prior to use on day 6 in functional assays.
(§3) To study the effect of the compounds in the signaling pathway of CTLs, the compound was incubated for 24 h at 20 μM. After this time, cells were collected and washed twice in PBS and lysed in radioimmunoprecipitation assay (RIPA) lysis buffer (50 mM tris-HCl at pH 7.4, 150 mM sodium chloride, 5 mM EGTA, 0.1% SDS, 1% NP-40, and 1% deoxycholate) supplemented with a protease and phosphatase inhibitor cocktail (mini complete ULTRA Protease tablet and phosSTOP tablet from Roche, Basel, Switzerland). Lysates were clarified by high-speed centrifugation (17,000 rpm for 15 min at 4 °C). Protein concentration was measured using a Micro BCA Protein Assay (Thermo Scientific, Waltham, MA, USA), and 10 μg to 30 μg of total protein were supplemented with 2X SDS sample buffer [tris (pH 6.8), 20% glycerol, 5% SDS, b-mercaptoethanol, and bromophenol blue) and boiled at 95 °C for 5 min. […] Bound Ab was detected by incubation with anti-rabbit and anti-mouse horseradish peroxidase secondary Ab (Cell Signaling Technology) and visualized using the Bio-Rad ChemiDoc MP Imaging System.

Jurkat T cells = assay: MTT cell proliferation assay, Jurkat T cells; assay type: cell-based; details: Homo sapiens, 48 h of treatment
Procedure: (§4) This assay allowed us to establish the corresponding IC50 values (expressed as the concentration, in μM, at which 50% of cell viability is achieved), shown in Table 1.
(§5) In 96-well plates, 5 × 10^3 (HT-29, MCF-7, A549, HMEC-1, Jurkat, and HEK-293) cells per well were incubated with serial dilutions of the tested compounds in a total volume of 100 μL of their respective growth media. The 3-(4,5-dimethylthiazol-2-yl)-2,5-diphenyltetrazolium bromide (MTT; Sigma Chemical Co.) dye reduction assay in 96-well microplates was used. After 2 days of incubation (37 °C, 5% CO2 in a humid atmosphere), 10 μL of MTT (5 mg/mL in phosphate-buffered saline, PBS) was added to each well, and the plate was incubated for a further 3 h (37 °C). After that, the supernatant was discarded and replaced by 100 µL of DMSO to dissolve formazan crystals. The absorbance was then read at 550 nm by spectrophotometry. For all concentrations of compound, cell viability was expressed as the percentage of the ratio between the mean absorbance of treated cells and the mean absorbance of untreated cells. Three independent experiments were performed, and the IC50 values (i.e., concentration half inhibiting cell proliferation) were graphically determined using GraphPad Prism 4 software.

LAT = assay: Immunoblotting of OT-1 CTL signaling proteins: LAT; assay type: cell-based, mice; details: OT-1, 20 μM, 24 h
Description: as §1, §2, §3

[1] = test system: A-549 (pulmonary adenocarcinoma); assay: MTT cell proliferation assay, A-549; assay type: cell-based, human; details: for IC50: Homo sapiens, read-out: IC50 A-549; for SI (A-549) (IC50HEK293/A-549): selectivity index
Procedure: The 3-(4,5-dimethylthiazol-2-yl)-2,5-diphenyltetrazolium bromide (MTT; Sigma Chemical Co.) dye reduction assay in 96-well microplates was used. […] After that, the supernatant was discarded and replaced by 100 µL of DMSO to dissolve formazan crystals. The absorbance was then read at 550 nm by spectrophotometry. For all concentrations of compound, cell viability was expressed as the percentage of the ratio between the mean absorbance of treated cells and the mean absorbance of untreated cells. Three independent experiments were performed, and the IC50 values (i.e., concentration half inhibiting cell proliferation) were graphically determined using GraphPad Prism 4 software.

[2] = test system: HEK-293 (human embryonic kidney cells); assay: MTT cell proliferation assay, HEK-293; assay type: cell-based; details: HEK293, 48 h of treatment
Procedure: as §4, §5

Fyn = assay: Immunoblotting of OT-1 CTL signaling proteins: FYN; assay type: cell-based, mice; details: OT-1, 20 μM, 24 h
Description: as §1, §2, §3

[3] = membrane THP-1, 1:5 HT-29/THP-1, 24 h
[4] = membrane THP-1, 2:1 HT-29/THP-1, 48 h

SMILES | IC50 (Jurkat T cells) [µM] | IC50 ([1]; A549, MTT, 48 h of treatment) [µM] | reduction of CD11b (CD11b; 48 h) | % CD11b (CD11b; [3]) [%] | % CD11b (CD11b; [4]) [%] | ZAP-70 protein expression (Western blot quantification) (ZAP70) | pZAP-70 protein expression (Western blot quantification) (ZAP70) | LAT protein expression (Western blot quantification) (LAT) | SI (A-549) (IC50HEK293/A-549) [1] | IC50 [2] [µM] | FYN protein expression (Western blot quantification) (Fyn) | pLAT protein expression (Western blot quantification) (LAT) | IC50 ([1]; A549, 48 h) [µM]
Cc1c(COc2ccc(CN3CCCCC3C(=O)O)cc2Br)cccc1-c1ccccc1 (stereo not drawn) [BMS-8, reference compound] | > 100 | 6 ± 1 | – | 91 ± 1 | 80 ± 2 | – | – | – | 10 | 60 ± 10 | – | – | –
COc1ccc(COc2cccc(NC(=O)Oc3ccccc3)c2)cc1 [Compound 14] | > 100 | – | about 20% | 78 ± 11 | 81 ± 8 | 54 | 108 | 103 | >27 | > 100 | 102 | 21 | 3.7 ± 0.5
COc1ccc(COc2cccc(NC(=O)Nc3ccc(OC)cc3)c2)cc1 [Compound 11] | > 100 | 12 ± 1 | about 20% | 95 ± 6 | 83 ± 5 | 38 | 77 | 85 | >9 | > 100 | 109 | 10 | –

More lines, main results first:

IC50 (Jurkat T cells) [µM] | IC50 ([1]; A549, MTT, 48 h of treatment) [µM] | SMILES | reduction of CD11b (CD11b; 48 h) | % CD11b (CD11b; [3]) [%] | % CD11b (CD11b; [4]) [%] | ZAP-70 protein expression (Western blot quantification) (ZAP70) | pZAP-70 protein expression (Western blot quantification) (ZAP70) | LAT protein expression (Western blot quantification) (LAT) | SI (A-549) (IC50HEK293/A-549) [1] | IC50 [2] [µM] | FYN protein expression (Western blot quantification) (Fyn) | pLAT protein expression (Western blot quantification) (LAT) | IC50 ([1]; A549, 48 h) [µM]
> 100 | 3.4 ± 0.8 | COc1ccc(COc2cccc(NC(=O)Nc3ccc(F)cc3)c2)cc1 [Compound 2] | about 20% | 92 ± 9 | 86 ± 3 | 34 | 88 | 63 | >29 | > 100 | 101 | – | –
> 100 | 1.6 ± 0.8 | COc1ccc(COc2cccc(NC(=O)Nc3ccc(Br)cc3)c2)cc1 [Compound 8] | – | 91 ± 4 | 93 ± 25 | 37 | 74 | 88 | >62 | > 100 | – | 8 | –
